In paper PMC11995724, “Antibiotic target discovery by integrated phenotypic and activity-based profiling of electrophilic fragments” (Cell chemical biology, 2025):
Structures can show the parent of a compound that is named as a salt.

Assay: in vitro
Settings: human, hek293t cells

Row | Structure (SMILES) | viability at 48 h, 25 µM
1 | O=C(CCl)N(Cc1ccccc1)c1ccccc1 [4-G13, N-benzyl-2-chloro-N-phenylacetamide] | 1.23%
2 | CC(Cl)C(=O)Nc1ccccc1-c1ccccc1 (stereo not drawn) [4-G14, N-{[1,1'-biphenyl]-2-yl}-2-chloropropanamide] | 69.4%
3 | CCCSc1nsc(NC(=O)CCl)n1 [4-G15, 2-chloro-N-[3-(propylsulfanyl)-1,2,4-thiadiazol-5-yl]acetamide] | 17.4%
4 | CC1CCN(C(=O)CCl)c2cc(Cl)ccc2S1 (stereo not drawn) [4-G16, 2-chloro-1-(7-chloro-2-methyl-2,3,4,5-tetrahydro-1,5-benzothiazepin-5-yl)ethan-1-one] | 0.484%
5 | Cc1cc(C)c(-c2csc(NC(=O)CCl)n2)cc1C [4-G17, 2-chloro-N-[4-(2,4,5-trimethylphenyl)-1,3-thiazol-2-yl]acetamide] | 0.339%
6 | CC(Cl)C(=O)Nc1ccccc1[N+](=O)[O-] (stereo not drawn) [4-G18, 2-chloro-N-(2-nitrophenyl)propanamide] | 103%
7 | O=C(CCl)N(CC=Cc1ccccc1)c1ccc2c(c1)OCCO2 [4-G19, 2-chloro-N-(2,3-dihydro-1,4-benzodioxin-6-yl)-N-(3-phenylprop-2-en-1-yl)acetamide] | 0.292%
8 | COc1ccc(C2=NN(C(=O)CCl)C(c3cccc(C)c3)C2)cc1 (stereo not drawn) [4-G20, 2-chloro-1-[3-(4-methoxyphenyl)-5-(3-methylphenyl)-4,5-dihydro-1H-pyrazol-1-yl]ethan-1-one] | -0.0034%
9 | O=C(CCl)NCCSc1ccccc1 [4-G21, 2-chloro-N-[2-(phenylsulfanyl)ethyl]acetamide] | 1.68%
10 | CC(=O)Nc1ccc(C2=NN(C(=O)CCl)C(c3ccco3)C2)cc1 (stereo not drawn) [4-G22, N-{4-[1-(2-chloroacetyl)-5-(furan-2-yl)-4,5-dihydro-1H-pyrazol-3-yl]phenyl}acetamide] | 0.156%
11 | CC(C)Cc1ccc(C(C)NC(=O)CCl)cc1 (stereo not drawn) [4-H03, 2-chloro-N-{1-[4-(2-methylpropyl)phenyl]ethyl}acetamide] | 0.63%
12 | CN(c1ccccc1)S(=O)(=O)c1cccc(NC(=O)CCl)c1 [4-H04, 2-chloro-N-{3-[methyl(phenyl)sulfamoyl]phenyl}acetamide] | 0.751%
13 | O=C(CCl)NCCC1=CCCCC1 [4-H05, 2-chloro-N-[2-(cyclohex-1-en-1-yl)ethyl]acetamide] | 20.9%
14 | O=C(CCl)Nc1ccc(S(=O)(=O)N2CCCCC2)cc1 [4-H06, 2-chloro-N-[4-(piperidine-1-sulfonyl)phenyl]acetamide] | 0.963%
15 | O=C(CCl)N(Cc1ccc(Cl)cc1)C12CC3CC(CC(C3)C1)C2 [4-H07, N-(adamantan-1-yl)-2-chloro-N-[(4-chlorophenyl)methyl]acetamide] | -0.34%
16 | O=C(CCl)Nc1nc2ccc([N+](=O)[O-])cc2s1 [4-H08, 2-chloro-N-(6-nitro-1,3-benzothiazol-2-yl)acetamide] | 0.244%
17 | Cc1ccc(C)c(Sc2ccc(NC(=O)CCl)cc2)c1 [4-H09, 2-chloro-N-{4-[(2,5-dimethylphenyl)sulfanyl]phenyl}acetamide] | -0.157%
18 | CSc1cccc(NC(=O)CCl)c1 [4-H10, 2-chloro-N-[3-(methylsulfanyl)phenyl]acetamide] | 1.13%
19 | CC(Cl)C(=O)Nc1cc(C(C)(C)C)nn1-c1ccccc1 (stereo not drawn) [4-H11, N-(3-tert-butyl-1-phenyl-1H-pyrazol-5-yl)-2-chloropropanamide] | 93%

Row | Structure (SMILES) | viability at 48 h, 25 µM
20 | COc1ccc(OC)c(-c2csc(NC(=O)CCl)n2)c1 [4-H12, 2-chloro-N-[4-(2,5-dimethoxyphenyl)-1,3-thiazol-2-yl]acetamide] | 1.27%
21 | CC(Cl)C(=O)Nc1sc(-c2ccccc2)cc1C(N)=O (stereo not drawn) [4-H13, 2-(2-chloropropanamido)-5-phenylthiophene-3-carboxamide] | 80.6%
22 | O=C(CCl)N1CCN(CCOc2ccccc2)CC1 [4-H14, 2-chloro-1-[4-(2-phenoxyethyl)piperazin-1-yl]ethan-1-one hydrochloride] | 1.67%
23 | Cc1cc(S(=O)(=O)N(C)C)cc(NC(=O)CCl)c1C [4-H15, 2-chloro-N-[5-(dimethylsulfamoyl)-2,3-dimethylphenyl]acetamide] | 1.33%
24 | Cc1ccc(C(NC(=O)CCl)c2cccs2)cc1 (stereo not drawn) [4-H16, 2-chloro-N-[(4-methylphenyl)(thiophen-2-yl)methyl]acetamide] | 0.348%
25 | O=C(CCl)NCCSc1ccc(Cl)cc1 [4-H17, 2-chloro-N-{2-[(4-chlorophenyl)sulfanyl]ethyl}acetamide] | 0.813%
26 | O=C(CCl)NCC1CN(Cc2ccccc2)CCO1 (stereo not drawn) [4-H18, N-[(4-benzylmorpholin-2-yl)methyl]-2-chloroacetamide] | 87.2%
27 | O=C(CCl)N1CCC(OCc2ccccc2)CC1 [4-H19, 1-[4-(benzyloxy)piperidin-1-yl]-2-chloroethan-1-one] | 0.757%
28 | Cn1ccnc1C(NC(=O)CCl)c1ccccc1 (stereo not drawn) [4-H20, 2-chloro-N-[(1-methyl-1H-imidazol-2-yl)(phenyl)methyl]acetamide] | 44.4%
29 | Cc1ccc(CNC(=O)c2ccccc2NC(=O)CCl)cc1 [4-H21, 2-(2-chloroacetamido)-N-[(4-methylphenyl)methyl]benzamide] | 105%
30 | O=C(CCl)NOCc1ccccc1 [4-H22, N-(benzyloxy)-2-chloroacetamide] | 63.3%
31 | Cc1ccc(Sc2ccc(NC(=O)CCl)cc2)c(C)c1 [4-I03, 2-chloro-N-{4-[(2,4-dimethylphenyl)sulfanyl]phenyl}acetamide] | 0.0415%
32 | COc1cc(NC(=O)C(C)Cl)cc(OC)c1 (stereo not drawn) [4-I04, 2-chloro-N-(3,5-dimethoxyphenyl)propanamide] | 81.7%
33 | CC(C)c1ccc(C(C)NC(=O)CCl)cc1 (stereo not drawn) [4-I05, 2-chloro-N-{1-[4-(propan-2-yl)phenyl]ethyl}acetamide] | 1.47%
34 | Cc1ccc(S(=O)(=O)N(C)C)cc1NC(=O)C(C)Cl (stereo not drawn) [4-I06, 2-chloro-N-[5-(dimethylsulfamoyl)-2-methylphenyl]propanamide] | 69.7%
35 | O=C(CCl)Nc1ccc(F)cc1[N+](=O)[O-] [4-I07, 2-chloro-N-(4-fluoro-2-nitrophenyl)acetamide] | 0.642%
36 | CCc1ccccc1NC(=O)CNC(=O)CCl [4-I08, 2-chloro-N-{[(2-ethylphenyl)carbamoyl]methyl}acetamide] | 0.8%
37 | O=C(CCl)Nc1ccc(Cl)c(C(F)(F)F)c1 [4-I09, 2-chloro-N-[4-chloro-3-(trifluoromethyl)phenyl]acetamide] | 0.299%
38 | CC(Cl)C(=O)NCC1CCCCC1 (stereo not drawn) [4-I10, 2-chloro-N-(cyclohexylmethyl)propanamide] | 90.9%

Row | Structure (SMILES) | viability at 48 h, 25 µM
39 | O=C(CCl)NCC1(c2ccc3c(c2)OCCO3)CCCC1 [4-I11, 2-chloro-N-{[1-(2,3-dihydro-1,4-benzodioxin-6-yl)cyclopentyl]methyl}acetamide] | 0.867%
40 | CC(Cl)C(=O)Nc1cc2c(cc1Cl)C(=O)c1ccccc1C2=O (stereo not drawn) [4-I12, 2-chloro-N-(3-chloro-9,10-dioxo-9,10-dihydroanthracen-2-yl)propanamide] | 79.4%
41 | O=C(CCl)N(Cc1ccc(F)cc1)C1CCCCC1 [4-I13, 2-chloro-N-cyclohexyl-N-[(4-fluorophenyl)methyl]acetamide] | 0.726%
42 | COc1ccc(NC(=O)C(C)Cl)cc1Cl (stereo not drawn) [4-I14, 2-chloro-N-(3-chloro-4-methoxyphenyl)propanamide] | 90.7%
43 | O=C(CCl)Nc1cc(C2CC2)nn1-c1ccccc1 [4-I15, 2-chloro-N-(3-cyclopropyl-1-phenyl-1H-pyrazol-5-yl)acetamide] | 1.44%
44 | CNC(=O)CC(NC(=O)CCl)c1ccc(F)cc1F (stereo not drawn) [4-I16, 3-(2-chloroacetamido)-3-(2,4-difluorophenyl)-N-methylpropanamide] | 18.5%
45 | O=C(CCl)NC(=O)Nc1ccccc1 [4-I17, 3-(2-chloroacetyl)-1-phenylurea] | 64%
46 | CC(Cl)C(=O)Nc1ccc([N+](=O)[O-])cc1 (stereo not drawn) [4-I18, 2-chloro-N-(4-nitrophenyl)propanamide] | 86.7%
47 | CCN(CC(=O)NC1CCS(=O)(=O)C1)C(=O)CCl (stereo not drawn) [4-I19, 2-chloro-N-{[(1,1-dioxo-1lambda6-thiolan-3-yl)carbamoyl]methyl}-N-ethylacetamide] | 1.33%
48 | O=C(CCl)N1N=C(c2ccccc2)CC1c1ccccc1 (stereo not drawn) [4-I20, 2-chloro-1-(3,5-diphenyl-4,5-dihydro-1H-pyrazol-1-yl)ethan-1-one] | 0.141%
49 | COc1ccc(NC(=O)CCl)c([N+](=O)[O-])c1 [4-I21, 2-chloro-N-(4-methoxy-2-nitrophenyl)acetamide] | 35.6%
50 | Cc1ccc(C2CC(c3cccs3)=NN2C(=O)CCl)cc1 (stereo not drawn) [4-I22, 2-chloro-1-[5-(4-methylphenyl)-3-(thiophen-2-yl)-4,5-dihydro-1H-pyrazol-1-yl]ethan-1-one] | 0.369%
51 | O=C(CCl)Nc1cc(C2CCCC2)nn1-c1ccccc1 [4-J03, 2-chloro-N-(3-cyclopentyl-1-phenyl-1H-pyrazol-5-yl)acetamide] | 0.358%
52 | O=C(CCl)Nc1cc(C(F)(F)F)ccc1Cl [4-J04, 2-chloro-N-[2-chloro-5-(trifluoromethyl)phenyl]acetamide] | 1.3%
53 | O=C(CCl)Nc1ccccc1SCc1ccccc1 [4-J05, N-[2-(benzylsulfanyl)phenyl]-2-chloroacetamide] | 0.437%
54 | O=C(CCl)Nc1ccccc1C(=O)c1ccccc1 [4-J06, N-(2-benzoylphenyl)-2-chloroacetamide] | 1.12%
55 | O=C(CCl)N1CCN(S(=O)(=O)c2ccc([N+](=O)[O-])cc2)CC1 [4-J07, 2-chloro-1-[4-(4-nitrobenzenesulfonyl)piperazin-1-yl]ethan-1-one] | -0.414%
56 | CN(C)S(=O)(=O)c1cccc(NC(=O)CCl)c1 [4-J08, 2-chloro-N-[3-(dimethylsulfamoyl)phenyl]acetamide] | 0.946%
57 | O=C(CCl)Nc1ccc(Oc2ccccc2)cc1 [4-J09, 2-chloro-N-(4-phenoxyphenyl)acetamide] | -0.178%
